Reference: patent US9526796B2, “Peptide-based in vivo siRNA delivery system” (priority 2010, dated 2016)
Non-standard residues stand in square brackets, D forms with d. No end group written: not given here. *: point of attachment. Nle = CCCC[C@H](N)C(=O)O; Cbz = O=C(OCc1ccccc1)*

System: ApoB
Assay: Knockdown of endogenous serum ApoB in mice after co-injection of masked melittin delivery peptide and ApoB siRNA-cholesterol conjugate
Type: in vivo
Experimental: RNAi polynucleotide conjugates and masked melittin peptides were synthesized as described above. Six to eight week old mice (strain C57BL/6 or ICR, ˜18-20 g each) were obtained from Harlan Sprague Dawley (Indianapolis Ind.). Mice were housed at least 2 days prior to injection. Feeding was performed ad libitum with Harlan Teklad Rodent Diet (Harlan, Madison Wis.). Mice were injected with 0.2 mL solution of delivery peptide and 0.2 mL siRNA conjugates into the tail vein. For simultaneous injection of delivery peptide and siRNA, the siRNA-conjugate was added to modified peptide prior to injection and the entire amount was injected. The composition was soluble and nonaggregating in physiological conditions. Solutions were injected by infusion into the tail vein.
Mice were fasted for 4 h (16 h for rats) before serum collection by submandibular bleeding. For rats blood was collected from the jugular vein. Serum ApoB protein levels were determined by standard sandwich ELISA methods. Briefly, a polyclonal goat anti-mouse ApoB antibody and a rabbit anti-mouse ApoB antibody (Biodesign International) were used as capture and detection antibodies respectively. An HRP-conjugated goat anti-rabbit IgG antibody (Sigma) was applied afterwards to bind the ApoB/antibody complex. Absorbance of tetramethyl-benzidine (TMB, Sigma) colorimetric development was then measured by a Tecan Safire2 (Austria, Europe) microplate reader at 450 nm.
Melittin was reversibly modified with CDM-NAG as described above. The indicated amount of melittin was then co-injected with the 200 μg ApoB siRNA-cholesterol conjugate. Effect on ApoB levels were determined as described above.
Melittin was reversibly modified with CDM-NAG as described above. The indicated amount of melittin was then co-injected with 50 μg ApoB siRNA-cholesterol conjugate. Effect on ApoB levels were determined as described above.
Melittin was reversibly modified with CDM-NAG (5×) as described above. The indicated amount of melittin was then co-injected with the indicated amount of ApoB siRNA-cholesterol conjugate. Effect on ApoB levels were determined as described above.
Melittin was reversibly modified with the indicated amount of CDM-NAG as described above. 50 μg melittin was then co-injected with the 100 μg ApoB siRNA-cholesterol conjugate. Effect on ApoB levels were determined as described above.
Melittin peptides having the indicated sequence were reversibly modified with CDM-NAG (5×) as described above. The indicated amount of melittin was then co-injected with the indicated amount of ApoB siRNA-cholesterol conjugate. Effect on ApoB levels were determined as described above.
Melittin peptides containing the indicated PEG amino terminal modifications were synthesized as described above. The PEG amino terminal modified melittin peptides were then reversibly modified with 5×CDM-NAG as described above. The indicated amount of Melittin was then co-injected with the 100-200 μg ApoB siRNA-cholesterol conjugate. Effect on ApoB levels were determined as described above. Addition of PEG less than 5 kDa in size decreased toxicity of the melittin peptides.

[1] = CDM-NAG (5×), 400 μg peptide per mouse, 200 μg siRNA per mouse
[2] = CDM-NAG (5×), 100 μg peptide per mouse, 100 μg siRNA per mouse
[3] = CDM-NAG (5×), 400 μg peptide per mouse, 100 μg siRNA per mouse

Substance	percent knockdown [2]	percent knockdown [3]	other results
(Ac-CIGAVLKVLTTGLPALISWIKRKRQQ-NH2)2			percent knockdown [1]: 45%
Ac-CIGAVLKVLTTGLPALISWIKRKRQQ-NH2			percent knockdown [1]: 85%
Acetyl-dMel-NH2 (Seq ID 107): melittin peptide derivative (Ac-G[dI]G[dA][dI][dL][dK][dV][dL][dA][dT]G[dL][dP][dT][dL][dI][dS][dW][dI][dK][dN][dK][dR][dK][dQ]-NH2; SMILES CC[C@@H](C)[C@@H](NC(=O)CNC(C)=O)C(=O)NCC(=O)N[C@H](C)C(=O)N[C@@H](C(=O)N[C@H](CC(C)C)C(=O)N[C@H](CCCCN)C(=O)N[C@@H](C(=O)N[C@H](CC(C)C)C(=O)N[C@H](C)C(=O)N[C@@H](C(=O)NCC(=O)N[C@H](CC(C)C)C(=O)N1CCC[C@@H]1C(=O)N[C@@H](C(=O)N[C@H](CC(C)C)C(=O)N[C@@H](C(=O)N[C@H](CO)C(=O)N[C@H](Cc1c[nH]c2ccccc12)C(=O)N[C@@H](C(=O)N[C@H](CCCCN)C(=O)N[C@H](CC(N)=O)C(=O)N[C@H](CCCCN)C(=O)N[C@H](CCCNC(=N)N)C(=O)N[C@H](CCCCN)C(=O)N[C@H](CCC(N)=O)C(N)=O)[C@H](C)CC)[C@H](C)CC)[C@H](C)O)[C@H](C)O)C(C)C)[C@H](C)CC)	89%		
Apis Mellifera (Big Honey Bee; Seq ID 50): Apis mellifera melittin		72%	
C-Mel G1L (Seq ID 51): melittin peptide derivative (CLIGAILKVLATGLPTLISWIKNKRKQ; N-terminal cysteine; melittin-like peptide derive from Apis florea)	89%		
C-dMel G1Nle (Seq ID 52): melittin peptide derivative (C[Nle]IGAILKVLATGLPTLISWIKNKRKQ; also: D-amino acids (dMel), positions not given here)	84%		
CBZ-Mel (Seq ID 108): melittin peptide derivative (Cbz-GIGAILKVLATGLPTLISWIKNKRKQ)			percent knockdown (CDM-NAG (5×), 100 μg peptide per mouse, 80 μg siRNA per mouse): 96%
CFK-G1L dMel-C (Seq ID 69): melittin peptide derivative (CFKLIGAILKVLATGLPTLISWIKNKRKQC; not fully specified (some residues); cysteine pairing not given here)	79%		
CKLK-Mel G1L (Seq ID 57): melittin peptide derivative; in Table 9 also with amino terminal NAG-(PEG)2/4/8 or PEG (5k) (CKLKLIGAILKVLATGLPTLISWIKNKRKQ; N-terminal CKLK extension; melittin-like peptide derive from Apis florea)			percent knockdown (5× CDM-NAG, amino terminal NAG-(PEG)2, 25 μg peptide, 100 μg siRNA): 15%; percent knockdown (5× CDM-NAG, amino terminal NAG-(PEG)2, 50 μg peptide, 100 μg siRNA): 83%; percent knockdown (5× CDM-NAG, amino terminal NAG-(PEG)4, 25 μg peptide, 100 μg siRNA): 58%; percent knockdown (5× CDM-NAG, amino terminal NAG-(PEG)4, 50 μg peptide, 100 μg siRNA): 81%; percent knockdown (5× CDM-NAG, amino terminal NAG-(PEG)4, 100 μg peptide, 100 μg siRNA): 94%; percent knockdown (5× CDM-NAG, amino terminal NAG-(PEG)8, 25 μg peptide, 100 μg siRNA): 58%; percent knockdown (5× CDM-NAG, amino terminal NAG-(PEG)8, 50 μg peptide, 100 μg siRNA): 89%; percent knockdown (5× CDM-NAG, amino terminal NAG-(PEG)8, 100 μg peptide, 100 μg siRNA): 96%; percent knockdown (5× CDM-NAG, amino terminal PEG (5k), 100 μg peptide, 100 μg siRNA): 90%; percent knockdown (5× CDM-NAG, no PEG modification, 150 μg peptide, 100 μg siRNA): 91%; percent knockdown (5× CDM-NAG, no PEG modification, 400 μg peptide, 100 μg siRNA): 97%; percent knockdown (CDM-NAG (5×), 150 μg peptide per mouse, 100 μg siRNA per mouse): 91%
CKLK-dMel G1Nle (Seq ID 112): melittin peptide derivative (CKLK[Nle]IGAILKVLATGLPTLISWIKNKRKQ; also: D-amino acids (dMel), positions not given here)			percent knockdown (CDM-NAG (5×), 200 μg peptide per mouse, 100 μg siRNA per mouse): 84%
Dimethyl G-Mel G1L (Seq ID 53): melittin peptide derivative (dimethyl-GLIGAILKVLATGLPTLISWIKNKRKQ)	91%		
G1A (Seq ID 2): melittin peptide derivative (AIGAILKVLATGLPTLISWIKNKRKQ; melittin-like peptide derive from Apis florea)	88%		
G1C (Seq ID 3): melittin peptide derivative (CIGAILKVLATGLPTLISWIKNKRKQ; melittin-like peptide derive from Apis florea)	37%		
G1F dMel (Seq ID 4): melittin peptide derivative ([dF][dI]G[dA][dI][dL][dK][dV][dL][dA][dT]G[dL][dP][dT][dL][dI][dS][dW][dI][dK][dN][dK][dR][dK][dQ])			percent knockdown (CDM-NAG (5×), 100 μg peptide per mouse, 50 μg siRNA per mouse): 94%
G1H (Seq ID 5): melittin peptide derivative (HIGAILKVLATGLPTLISWIKNKRKQ; melittin-like peptide derive from Apis florea)		78%	
G1L Mel (1-23) (Seq ID 71): melittin peptide derivative (LIGAILKVLATGLPTLISWIKNK; melittin-like peptide derive from Apis florea)		69%	
G1L Mel-Cys (Seq ID 63): melittin peptide derivative (LIGAILKVLATGLPTLISWIKNKRKQC; C-terminal cysteine; melittin-like peptide derive from Apis florea)		82%	
G1L Mel-KLKC (Seq ID 65): melittin peptide derivative (LIGAILKVLATGLPTLISWIKNKRKQKLKC; C-terminal KLKC extension; melittin-like peptide derive from Apis florea)	97%		
G1L d(1-11)-1(12-26) (Seq ID 109): melittin peptide derivative ([dL][dI]G[dA][dI][dL][dK][dV][dL][dA][dT]GLPTLISWIKNKRKQ)	70%		
G1L dMel-C (Seq ID 114): melittin peptide derivative ([dL][dI]G[dA][dI][dL][dK][dV][dL][dA][dT]G[dL][dP][dT][dL][dI][dS][dW][dI][dK][dN][dK][dR][dK][dQ]C)			percent knockdown (CDM-NAG (5×), 50 μg peptide per mouse, 100 μg siRNA per mouse): 93%
G1L retro-dMel-KLK-PEG(5k) (Seq ID 115): melittin peptide derivative (KLK[dQ][dK][dR][dK][dN][dK][dI][dW][dS][dI][dL][dT][dP][dL]G[dT][dA][dL][dV][dK][dL][dI][dA]G[dI][dL]; also: PEG 5k conjugated)	32%		
G1L retroMel-KLK-Stearoyl (Seq ID 75): melittin peptide derivative (KLKQKRKNKIWSILTPLGTALVKLIAGIL; also: stearoyl, site not given here)		50%	
G1L retroMel-Stearoyl (Seq ID 74): melittin peptide derivative (QKRKNKIWSILTPLGTALVKLIAGIL; also: stearoyl, site not given here)		56%	
G1L, G12L (Seq ID 22): melittin peptide derivative (LIGAILKVLATLLPTLISWIKNKRKQ; melittin-like peptide derive from Apis florea)		93%	
G1L, I2L, 15L, I17L, I20L (Seq ID 43): melittin peptide derivative (LLGALLKVLATGLPTLLSWLKNKRKQ; melittin-like peptide derive from Apis florea)		96%	
G1L, I2Nle, I5Nle, I17Nle, I20Nle (Seq ID 44): melittin peptide derivative (L[Nle]GA[Nle]LKVLATGLPTL[Nle]SW[Nle]KNKRKQ)	99%		
